Assay results reported in publication PMC7248897, “Synthesis, Biological Evaluation and In Silico Studies of Certain Oxindole–Indole Conjugates as Anticancer CDK Inhibitors” (Molecules, 2020).

Experiments:
Type in all cases: cell-based, human
MCF-7 cells = experiment: Cell cycle analysis by flow cytometry (PI); conditions: for fold elevation in sub-G1 phase / fold increase of cells in G2/M phase: MCF-7, in comparison to the control (DMSO); for %Sub-G1 / %G2/M / %S / %G0–G1: MCF-7 cells treated at IC50, 24 h; for %Sub-G1: control 1.37; for %G2/M: control 14.73; for %S: control 27.45; for %G0–G1: control 56.45
Procedure: Most of the cytotoxic agents wield their anti-proliferative effect by arresting the cell cycle at some checkpoints. Cell cycle analysis employs flow cytometry to distinguish cells within the different cell cycle phases. […] MCF-7 cells were treated by the IC50 of the two conjugates and their impact on the cell population was recorded. […] This was accompanied by discernible escalation in the proportion of cells in the G2/M phase by 2.80- and 2.46-fold with concomitant elevation in the sub-G1 phase by 17.8 and 16.25-fold, respectively, in comparison to the control (DMSO). […]
(§1) The two examined human breast cancer cell lines (MCF-7 and Breast MDA-MB-231) have been obtained from American Type Culture Collection (ATCC). The cells were maintained in Dulbecco's modified Eagle's medium (DMEM) supplemented with 10% heat inactivated fetal calf serum (GIBCO), penicillin (100 U/ml) and streptomycin (100 µg/ml) at 37 °C in humidified atmosphere containing 5% CO2. Cells at a concentration of 0.50 x 106 were grown in a 25 cm2 flask in 5 ml of culture medium. […]
Breast cancer MCF-7 cells were treated with hybrids 6e and 6f for 24 h (at their IC50 concentration), and then cells were washed twice with ice-cold phosphate buffered saline (PBS). Subsequently, the treated cells were collected by centrifugation, fixed in ice-cold 70% (v/v) ethanol, washed with PBS, re-suspended with 100 μg/mL RNase, stained with 40 μg/mL PI, and analyzed by flow cytometry using FACS Calibur (Becton Dickinson, BD, Franklin Lakes, NJ, USA). The cell cycle distributions were calculated using CellQuest software 5.1 (Becton Dickinson).

[1] = system: MDA-MB-231 breast cancer cell line; experiment: SRB anti-proliferative assay, MDA-MB-231; conditions: for IC50: Homo sapiens, MDA-MB-231, SRB assay, 48 h, mean ± S.D. from 3 separate experiments, read-out: IC50 MDA-MB-231
Procedure: Cytotoxicity was assessed following the SRB colorimetric assay protocol, as reported earlier.
1. Anti-proliferative action toward human breast cell lines […]
as §1, with “have” for “The two examined human breast cancer cell lines (MCF-7 and Breast MDA-MB-231) have”, “of” for “of 0.50 x 106 were grown in a 25 cm2 flask in 5 ml of culture medium.”
The anti-proliferative activity of the tested hybrids 6a-i, 9a-f and 11a, b was measured in vitro using the Sulfo-Rhodamine-B stain (SRB) assay. Briefly, Cells were inoculated in 96-well microtiter plate (5X104 cells/ well) for 24 h before treatment with the tested compounds to allow attachment of cell to the wall of the plate. Tested compounds were dissolved in DMSO at 1 mg/ml immediately before use and diluted to the appropriate volume just before addition to the cell culture. Different concentrations of tested compounds, doxorubicin and sorafenib were added to the cells (three wells were prepared for each individual dose). Cells were incubated with the compounds for 48 h at 37°C and in atmosphere of 5% CO2. After 48 h cells were fixed, washed, and stained for 30 min with 0.4% (w/v) SRB dissolved in 1% acetic acid. Unbound dye was removed by four washes with 1% acetic acid, and attached stain was recovered with Tris-EDTA buffer.
Color intensity was measured in an ELISA reader. […]

caspase-3 = experiment: ELISA of active caspase-3 level in MCF-7 cells; conditions: for fold increase of caspase-3 level: MCF-7, in comparison to the control; for Caspase-3: active caspase-3, MCF-7 cells treated at IC50, 48 h, control 35.92 ± 1.8
Procedure: In addition, their influence on the level of caspase-3 and p53 was estimated in the MCF-7 cell line.
Assessment of the levels for the proapoptotic markers (Bax, caspase-3, and p53) as well as the antiapoptotic marker (Bcl-2) was carried out through the use of ELISA colorimetric kits in accordance with the manufacturer’s instructions, as mentioned earlier. In addition, the pro-apoptotic potential of indoles 6e and 6f towards MCF-7 cells was evaluated through an FITC Annexin V apoptosis detection kit by flow cytometry, in accordance with the manufacturer’s protocol and referring to the reported procedures.
The levels of the pro-apoptotic markers (Bax, caspase-3 and p53) as well as the anti-apoptotic marker Bcl-2 were determined using ELISA colorimetric kits per the manufacturer’s instructions. Breast cancer MCF-7 cells were cultured as a monolayer in T-25 flasks and were seeded to attain 30% confluency prior to treatment. Cells were then […]
of treatment, cells were collected via trypsinization and centrifuged at 10,000 rpm. The pellet was then rinsed with PBS and lysed in RIPA lysis buffer at 4 °C for 45 min, then centrifuged at 14,000 rpm for 20 min to remove the cellular debris. Lysates were then collected and stored at −80 °C for later protein determination using Pierce BCA Protein Assay Kit according to manufacturer’s recommendations.
The cell lysate was diluted 10 times, and 100 μL ([…]) was added to the wells of four separate microtiter plates for the four ELISA kits that were pre-coated with primary antibodies specific to Bax, Bcl-2, caspase-3 and p53 proteins, respectively. A secondary biotin-linked antibody specific to the protein captured by the primary antibody was further added to bind the captured protein, forming a “sandwich” of specific antibodies around the desired protein in the cell lysate. The streptavidin-HRP complex was then used to bind the biotin-linked secondary antibody through its streptavidin portion. The HRP domain reacted with the added TMB substrate to form a colored product that measured at 450 nm by a plate reader ChroMate-4300 after the reaction was terminated via the addition of stop solution. […]
Cells were then rinsed in binding buffer and resuspended in 150
μL of binding buffer with the addition of 1 μL of DAPI (1 μg/μL in PBS). […]

IC50 [1] | Structure (SMILES) | fold elevation in sub-G1 phase (MCF-7 cells) | fold increase of cells in G2/M phase (MCF-7 cells) | %Sub-G1 (MCF-7 cells) | %G2/M (MCF-7 cells) | %S (MCF-7 cells) | %G0–G1 (MCF-7 cells) | fold increase of caspase-3 level (caspase-3) | Caspase-3 (caspase-3) | fold potency compared to staurosporine ([1]; MDA-MB-231, ratio of IC50 values)
22.5 ± 1.67 µM | Cc1ccc2c(c1)/C(=N/NC(=O)c1cc3ccccc3[nH]1)C(=O)N2 [6e] | 17.8 fold | 2.80 fold | 24.49% | 41.47% | 14.81% | 19.23% | 11.45 fold | 411.70 ± 12.3 pg/mg | –
2.85 ± 0.9 µM | COc1ccc2c(c1)/C(=N/NC(=O)c1cc3ccccc3[nH]1)C(=O)N2 [6f] | 16.25 fold | 2.46 fold | 22.26% | 36.26% | 19.29% | 22.19% | 10.1 fold | 364.15 ± 14.8 pg/mg | 3.6 fold
